Data as given in the NIST ThermoML archive (doi:10.1021/je0501890).

Assay: xn = mol fraction of the nth substance listed
Details: 101.33 kPa, Liquid

CC(Cl)(Cl)Cl [1,1,1-trichloroethane] + CCCCCCCO
Details | mass density, 293.15 K [kg/m3] | mass density, 298.15 K [kg/m3] | mass density, 303.15 K [kg/m3] | viscosity, 293.15 K [mPa·s] | viscosity, 298.15 K [mPa·s] | viscosity, 303.15 K [mPa·s]
x2 = 0.103 | 1252.2 | 1244.75 | 1237.24 | – | – | –
x2 = 0.1048 | – | – | – | 0.996 | 0.914 | 0.858
x2 = 0.1615 | 1214.95 | 1207.9 | 1200.8 | – | – | –
x2 = 0.2027 | – | – | – | 1.224 | 1.11 | 1.014
x2 = 0.2047 | 1188.54 | 1181.77 | 1174.93 | – | – | –
x2 = 0.2545 | 1159.2 | 1152.74 | 1146.2 | – | – | –
x2 = 0.3034 | – | – | – | 1.529 | 1.379 | 1.245
x2 = 0.309 | 1128.37 | 1122.23 | 1116.01 | – | – | –
x2 = 0.3514 | 1105.21 | 1099.32 | 1093.32 | – | – | –
x2 = 0.3542 | – | – | – | 1.714 | 1.539 | 1.388
x2 = 0.398 | – | – | – | 1.895 | 1.699 | 1.526
x2 = 0.4022 | 1078.45 | 1072.77 | 1067.06 | – | – | –
x2 = 0.5016 | 1028.73 | 1023.53 | 1018.27 | – | – | –
x2 = 0.503 | – | – | – | 2.426 | 2.14 | 1.907
x2 = 0.5509 | 1005.32 | 1000.35 | 995.29 | – | – | –
x2 = 0.5533 | – | – | – | 2.729 | 2.393 | 2.127
x2 = 0.58 | 991.84 | 986.98 | 982.04 | – | – | –
x2 = 0.5993 | – | – | – | 3.043 | 2.664 | 2.353
x2 = 0.6573 | 957.28 | 952.71 | 948.09 | – | – | –
x2 = 0.6724 | 950.85 | 946.34 | 941.77 | – | – | –
x2 = 0.6811 | – | – | – | 3.69 | 3.196 | 2.791
x2 = 0.7416 | – | – | – | 4.217 | 3.629 | 3.141
x2 = 0.7421 | 921.42 | 917.17 | 912.86 | – | – | –
x2 = 0.7937 | 900.46 | 896.37 | 892.23 | – | – | –
x2 = 0.7956 | – | – | – | 4.783 | 4.09 | 3.495
x2 = 0.8459 | 879.86 | 875.95 | 871.97 | – | – | –
x2 = 0.9003 | – | – | – | 5.912 | 5.018 | 4.297
x2 = 0.9027 | 858.15 | 854.41 | 850.61 | – | – | –

CCCCCCCO [heptan-1-ol] + ClCCCl
Details | mass density, 293.15 K [kg/m3] | mass density, 298.15 K [kg/m3] | mass density, 303.15 K [kg/m3] | viscosity, 293.15 K [mPa·s] | viscosity, 298.15 K [mPa·s] | viscosity, 303.15 K [mPa·s]
x1 = 0.0502 | 1213.23 | 1206.24 | 1199.3 | – | – | –
x1 = 0.1023 | – | – | – | 0.922 | 0.851 | 0.796
x1 = 0.1024 | 1175.9 | 1169.21 | 1162.55 | – | – | –
x1 = 0.1493 | 1145.01 | 1138.62 | 1132.15 | – | – | –
x1 = 0.2009 | – | – | – | 1.104 | 1.006 | 0.928
x1 = 0.2511 | 1085.65 | 1079.74 | 1073.87 | – | – | –
x1 = 0.2957 | – | – | – | 1.342 | 1.215 | 1.105
x1 = 0.3445 | 1038.38 | 1032.88 | 1027.38 | – | – | –
x1 = 0.3465 | – | – | – | 1.501 | 1.353 | 1.227
x1 = 0.3896 | 1017.38 | 1012.13 | 1006.83 | – | – | –
x1 = 0.4198 | 1004.18 | 999.04 | 993.91 | – | – | –
x1 = 0.455 | 989.42 | 984.4 | 979.35 | – | – | –
x1 = 0.4616 | – | – | – | 1.939 | 1.732 | 1.546
x1 = 0.5017 | 970.85 | 966 | 961.14 | – | – | –
x1 = 0.5035 | – | – | – | 2.139 | 1.901 | 1.699
x1 = 0.5437 | – | – | – | 2.355 | 2.079 | 1.844
x1 = 0.551 | 952.41 | 947.76 | 943.04 | – | – | –
x1 = 0.5998 | – | – | – | 2.703 | 2.367 | 2.089
x1 = 0.6036 | 933.66 | 929.17 | 924.63 | – | – | –
x1 = 0.6481 | 918.87 | 914.5 | 910.13 | – | – | –
x1 = 0.6602 | 914.96 | 910.61 | 906.29 | – | – | –
x1 = 0.6956 | 903.77 | 899.55 | 895.28 | – | – | –
x1 = 0.6972 | – | – | – | 3.412 | 2.955 | 2.583
x1 = 0.7475 | – | – | – | 3.887 | 3.354 | 2.905
x1 = 0.748 | 887.98 | 883.88 | 879.79 | – | – | –
x1 = 0.7974 | 873.84 | 869.91 | 865.91 | – | – | –
x1 = 0.7978 | – | – | – | 4.397 | 3.773 | 3.253
x1 = 0.8548 | 858.28 | 854.47 | 850.61 | – | – | –
x1 = 0.8862 | – | – | – | 5.474 | 4.65 | 3.979
x1 = 0.8898 | 849.21 | 845.44 | 841.7 | – | – | –
x1 = 0.9489 | 834.67 | 831.05 | 827.43 | – | – | –
